Source: patent US10118935B2, “Melampomagnolide B dimers” (priority 2014, dated 2018)

Assays:
HOP-92 = assay: NCI 60 cell line five dose, Non-Small Cell Lung Cancer
MDA-MB-468 = assay: NCI 60 cell line five dose, Breast Cancer
SF-295 = assay: NCI 60 cell line five dose, CNS Cancer
A549/ATCC = assay: NCI 60 cell line five dose, Non-Small Cell Lung Cancer
TK-10 = assay: NCI 60 cell line five dose, Renal Cancer
HS 578T = assay: NCI 60 cell line five dose, Breast Cancer; conditions: HS 578T
SK-MEL-2 = assay: NCI 60 cell line five dose, Melanoma
M14 = assay: NCI 60 cell line five dose, Melanoma
NCI-H226 = assay: NCI 60 cell line five dose, Non-Small Cell Lung Cancer
786-0 = assay: NCI 60 cell line five dose, Renal Cancer
NCI-H23 = assay: NCI 60 cell line five dose, Non-Small Cell Lung Cancer
MOLT-4 = assay: NCI 60 cell line five dose, Leukemia
RXF 393 = assay: NCI 60 cell line five dose, Renal Cancer
OVCAR-8 = assay: NCI 60 cell line five dose, Ovarian Cancer
MCF7 = assay: NCI 60 cell line five dose, Breast Cancer
OVCAR-3 = assay: NCI 60 cell line five dose, Ovarian Cancer
SN12C = assay: NCI 60 cell line five dose, Renal Cancer
HL-60(TB) = conditions: for CC50: read-out: LC50
NCI/ADR-RES = assay: NCI 60 cell line five dose, Ovarian Cancer; conditions: NCI/ADR-RES
M9ENL AML cell lines = conditions: read-out: LC50; M9ENL AML cell lines; after 24 hours of drug exposure
DU-145 = assay: NCI 60 cell line five dose, Prostate Cancer
LOX IMVI = assay: NCI 60 cell line five dose, Melanoma
T-47D = assay: NCI 60 cell line five dose, Breast Cancer
HT29 = assay: NCI 60 cell line five dose, Colon Cancer

Work on `C=C1C(=O)O[C@H]2[C@H]1CC/C(COC(=O)NCCCCCNC(=O)OC/C1=C/CC[C@@]3(C)O[C@H]3[C@H]3OC(=O)C(=C)[C@@H]3CC1)=C\CC[C@@]1(C)O[C@@H]21` [JVM 2-76, bis(((1aR,7aS,10aS,10bS,E)-1a-Methyl-8-methylene-9-oxo-1a,2,3,6,7,7a,8,9,10a,10b-decahydrooxireno[2′,3′:9,10]cyclodeca[1,2-b]furan-5-yl)methyl)pentane-1,5-diyldicarbamate] yielded a GI50 (HOP-92) of 1.3 µM, a TGI (HOP-92) of 3.35 µM and a CC50 (HOP-92; read-out: LC50) of 8.61 µM. The GI50 (MDA-MB-468) was 1.06 µM, the TGI (MDA-MB-468) was 3.96 µM and the CC50 (MDA-MB-468; read-out: LC50) was 24.7 µM. It also gave a GI50 (SF-295) of 11.1 µM, a TGI (SF-295) of 26.9 µM and a CC50 (SF-295; read-out: LC50) of 65.2 µM. The GI50 (A549/ATCC) was 14.9 µM, the TGI (A549/ATCC) was 32.7 µM and the CC50 (A549/ATCC; read-out: LC50) was 71.7 µM. It also gave a GI50 (TK-10) of 1.82 µM, a TGI (TK-10) of 4.40 µM and a CC50 (TK-10; read-out: LC50) of 11.8 µM. For the same molecule, the GI50 (HS 578T) was 2.91 µM, the TGI (HS 578T) was 13.0 µM and the CC50 (HS 578T; read-out: LC50) was greater than 100 µM. For the same molecule, the GI50 (SK-MEL-2) was 2.01 µM, the TGI (SK-MEL-2) was 3.96 µM and the CC50 (SK-MEL-2; read-out: LC50) was 7.81 µM. For the same molecule, the GI50 (M14) was 1.71 µM, the TGI (M14) was 3.74 µM and the CC50 (M14; read-out: LC50) was 8.2 µM. It also gave a GI50 (NCI-H226) of 2.56 µM, a TGI (NCI-H226) of 8.18 µM and a CC50 (NCI-H226; read-out: LC50) of 30.9 µM. The GI50 (786-0) was 1.57 µM, the TGI (786-0) was 3.17 µM and the CC50 (786-0; read-out: LC50) was 6.39 µM. The GI50 (NCI-H23) was 2.66 µM, the TGI (NCI-H23) was 7.71 µM and the CC50 (NCI-H23; read-out: LC50) was 45.5 µM. The CC50 (NCI-H322M) was greater than 100 µM, the GI50 (MOLT-4) was 1.48 µM and the TGI (MOLT-4) was 9.29 µM. It also gave a CC50 (MOLT-4; read-out: LC50) greater than 100 µM, a GI50 (RXF 393) of 0.85 µM and a TGI (RXF 393) of 2.43 µM. The CC50 (RXF 393; read-out: LC50) was 6.35 µM, the GI50 (OVCAR-8) was 3.27 µM and the TGI (OVCAR-8) was 13.7 µM. It also gave a CC50 (OVCAR-8; read-out: LC50) of 61 µM, a GI50 (MCF7) of 0.39 µM and a TGI (MCF7) of 1.93 µM. It also gave a CC50 (MCF7; read-out: LC50) of 6.2 µM, a GI50 (OVCAR-3) of 0.76 µM and a TGI (OVCAR-3) of 2.13 µM. It also gave a CC50 (OVCAR-3; read-out: LC50) of 5.07 µM, a GI50 (SN12C) of 2.49 µM and a TGI (SN12C) of 10.7 µM. The CC50 (SN12C; read-out: LC50) was 45.5 µM, the GI50 (HL-60(TB)) was 0.31 µM and the TGI (HL-60(TB)) was 1.71 µM. For the same molecule, the CC50 (HL-60(TB)) was greater than 100 µM, the GI50 (NCI/ADR-RES) was 70 µM and the TGI (NCI/ADR-RES) was greater than 100 µM. The CC50 (NCI/ADR-RES; read-out: LC50) was greater than 100 µM, the CC50 (M9ENL AML cell lines) was 1.35 µM and the GI50 (DU-145) was 3.06 µM. For the same molecule, the TGI (DU-145) was 9.55 µM, the CC50 (DU-145; read-out: LC50) was 32.6 µM and the GI50 (LOX IMVI) was 0.46 µM. The TGI (LOX IMVI) was 1.85 µM, the CC50 (LOX IMVI; read-out: LC50) was 5.82 µM and the GI50 (T-47D) was 1.6 µM. The TGI (T-47D) was 5.73 µM, the CC50 (T-47D; read-out: LC50) was greater than 100 µM and the GI50 (HT29) was 0.51 µM. It also gave a TGI (HT29) of 1.78 µM and a CC50 (HT29; read-out: LC50) of 4.85 µM.

`C=C1C(=O)O[C@H]2[C@H]1CC/C(COC(=O)CCC(=O)NCCCCCCCCNC(=O)CCC(=O)OC/C1=C/CC[C@@]3(C)O[C@H]3[C@H]3OC(=O)C(=C)[C@@H]3CC1)=C\CC[C@@]1(C)O[C@@H]21` [JVM 2-87, bis(((1aR,7aS,10aS,10bS,E)-1a-Methyl-8-methylene-9-oxo-1a,2,3,6,7,7a,8,9,10a,1b-decahydrooxireno[2′,3′:9,10]cyclodeca[1,2-b]furan-5-yl)methyl)4,4′-(octane-1,8-diylbis(azanediyl))bis(4-oxobutanoate)] gave a GI50 (HOP-92) of 1.58 µM, a TGI (HOP-92) of 3.27 µM and a GI50 (MDA-MB-468) of 1.33 µM. For the same molecule, the TGI (MDA-MB-468) was 3.84 µM, the GI50 (SF-295) was 15.1 µM and the TGI (SF-295) was 29.3 µM. It also gave a GI50 (A549/ATCC) of 18.5 µM, a TGI (A549/ATCC) of 40.7 µM and a GI50 (TK-10) of 20.8 µM. It also gave a TGI (TK-10) of 3.94 µM, a GI50 (HS 578T) of 3.88 µM and a TGI (HS 578T) of 29.5 µM. For the same molecule, the GI50 (SK-MEL-2) was 2.25 µM, the TGI (SK-MEL-2) was 4.59 µM and the GI50 (M14) was 1.79 µM. It also gave a TGI (M14) of 3.79 µM, a GI50 (NCI-H226) of 2.06 µM and a TGI (NCI-H226) of 4.95 µM. It also gave a GI50 (786-0) of 1.62 µM, a TGI (786-0) of 3.29 µM and a GI50 (NCI-H23) of 2.99 µM. It also gave a TGI (NCI-H23) of 8.25 µM, a CC50 (NCI-H322M) of 60.5 µM and a GI50 (MOLT-4) of 2.11 µM. For the same molecule, the TGI (MOLT-4) was 6.41 µM, the GI50 (RXF 393) was 0.85 µM and the TGI (RXF 393) was 2.61 µM. It also gave a GI50 (OVCAR-8) of 2.9 µM, a TGI (OVCAR-8) of 13.3 µM and a GI50 (MCF7) of 0.77 µM. The TGI (MCF7) was 2.47 µM, the GI50 (OVCAR-3) was 1.5 µM and the TGI (OVCAR-3) was 2.82 µM. For the same molecule, the GI50 (SN12C) was 3.74 µM, the TGI (SN12C) was 14.8 µM and the GI50 (HL-60(TB)) was 0.63 µM. It also gave a TGI (HL-60(TB)) of 3.12 µM, a CC50 (HL-60(TB)) greater than 100 µM and a GI50 (NCI/ADR-RES) of 33.5 µM. For the same molecule, the TGI (NCI/ADR-RES) was greater than 100 µM, the GI50 (DU-145) was 1.92 µM and the TGI (DU-145) was 3.61 µM. For the same molecule, the GI50 (LOX IMVI) was 1.37 µM, the TGI (LOX IMVI) was 2.76 µM and the GI50 (T-47D) was 1.51 µM. The TGI (T-47D) was 3.86 µM, the GI50 (HT29) was 1.64 µM and the TGI (HT29) was 3.12 µM.
